{
  "source": "patent US20080171704A1",
  "about": "“Composition and method for treating diabetes” (priority 2001, published 2008)",
  "key": {"[1]": {"test": "31-day mouse repeat-dose toxicology study", "type": "in vivo, mice", "settings": "mouse, in vivo; CD-1 mice, 31-day dosing; read-out: no adverse effect level (NOAEL)", "description": "(§1) FIG. 7. Immunopositive tissue area in normal mouse following treatment with INGAP Peptide for 31 days. Data are mean ±SEM. The percentage of cross-sectional area stained for insulin was determined with an Olympus microscope (150×) and image analysis software (Image Pro Plus Version 4.0, Media Cybernetics).\n(§2) A repeat-dose toxicology study was conducted in mice with 31 days of daily injection of INGAP Peptide at 0, 2, 20, and 100 mg/kg/day. In this study, four treatment groups of 10 males and 10 females each were allocated, as were two groups of recovery animals (5 males and 5 females). Blood was collected at termination and necropsies were performed for gross and microscopic observations. Clinical pathology and serum levels were evaluated in approximately half the animals in each group. Selected organs (brain, adrenal, heart, kidney, liver, lung, pancreas, and spleen) were weighed and relative organ weights were calculated. A section of the pancreas was removed and frozen in liquid nitrogen for evaluation for insulin content and sections of pancreas tissue were submitted for independent microscopic examination. Recovery animals were terminated 28 days after cessation of dosing. Various parameters for further study as well as potentially drug-related abnormal findings were evaluated to determine the reproducibility and potential clinical significance."}, "[2]": {"tested_on": "CD-1 mice", "test": "31-day mouse repeat-dose toxicology study", "type": "in vivo", "description": "as §1, §2"}, "[3]": {"tested_on": "patients", "test": "Human clinical studies in type I or type II diabetes mellitus", "type": "in vivo", "settings": "versus placebo", "description": "Doses are often based on the results of efficacy and safety studies in animals. Two doses of INGAP Peptide, 7.5 mg (0.125 mg/kg, or 4.625 mg/m^2 for a 60 kg patient) and 120 mg ([…], or 74 mg/m^2 for a 60 kg patient) are exemplified in the treatment of type I or type II diabetes mellitus. The following parameters are evaluated to determine efficacy of INGAP Peptide treatment. • 1. A reduction of fasting glucose levels by >35 mg/dl while the total insulin dose is maintained. • 2. A reduction of insulin dose by 25% with fasting glucose levels maintained in the normal range as determined by the American Diabetes Association (ADA) criteria. • 3. An increase in fasting C-peptide >1 ng/ml is obtained. An increase in C-peptide of >2 ng/ml in response to Sustacal® (Boost®) is obtained.\nEach patient is randomized to receive one single intramuscular injection of INGAP Peptide. After evaluating efficacy and safety data, patients could be given further INGAP Peptide injections as deemed appropriate by the physician.\nStimulated C-peptide tests are performed in the morning after an overnight fasting period of at least 10 hours. The tests are performed only if the fasting glucose is between 80 and 250 mg/dl. Patients can take their diabetes medications the evening before, but should not take them the morning of the test until the test is completed. Blood samples for the determination of C-peptide are drawn immediately before Boost® ingestion, and at 0.5, 2, and 4 hours post-ingestion. Boost® is administered through ingestion. Patients are considered insulin deficient if their fasting C-peptide is <1.0 ng/ml and their maximum stimulated C-peptide value is <2.0 ng/ml."}, "[4]": {"tested_on": "C57BL/6J mice made diabetic with STZ", "test": "In vivo efficacy study in streptozotocin-diabetic mice", "description": "FIG. 3. Time course of blood glucose following injection of INGAP Peptide […] twice daily or saline for 39 days to C57BL/6J mice rendered diabetic using a regimen of multiple injections of low-dose streptozotocin. Blood glucose levels were measured every three days.\nC57BL/6J mice were made diabetic with STZ (35 mg/kg/day×5 days) and divided in INGAP Peptide-treated (250 ? g twice daily) and saline control groups of 4 animals each. […] The appearance of glucagon producing cells is noteworthy since glucagon plays a major role in the defense against hypoglycemia. This feature of the INGAP Peptide induced islet neogenesis could help to reverse the impaired counter regulatory control of hypoglycemia associated with the overzealous treatment of diabetes. Hypoglycemia was not observed in any of the INGAP Peptide-treated animals. In saline-treated control animals, no new islet formation was observed."}, "[5]": {"tested_on": "normal hamsters", "test": "Islet formation in normal hamsters", "type": "in vivo, Syrian golden Hamsters", "settings": "5 mg/kg IP daily", "description": "FIG. 2. Increase in pancreatic endocrine cell mass with INGAP Peptide. Normal Syrian golden Hamsters were treated with saline (control) or INGAP Peptide IP for either 10 days or 30 days. The number of islets/ml was determined with a computer-aided Morphometric system employing Image-Pro Plus software.\nINGAP Peptide was studied for its effects on islet formation in normal hamsters. INGAP Peptide 5 mg/kg (25 mg/m^2) was given IP daily for 4 weeks and β-cell mass was assessed at 10 days and at 30 days. […] The islet neogenesis effect was manifested by production of more insulin and an increase in the number of islets in the pancreata. Newly formed β-cells appeared in the wall of, and budding from, pancreatic ducts. These insulin-positive cells resulted from ductal epithelial cell differentiation and islet cell growth, and their appearance was proportional to the dose and duration of treatment with INGAP Peptide. Over longer periods of treatment, these cells migrated away from the duct and formed islets in the parenchyma of the pancreas. After 10 consecutive days of INGAP Peptide administration, there was a 30% increase in islet number, and by 30 days there was a doubling of the number of islets in the tissues, consistent with the prior observations using ilotropin, INGAP, and cellophane wrapping in animal models."}, "[6]": {"test": "Stability of bulk INGAP Peptide (lyophilized powder)", "type": "physicochemical", "description": "Stability is determined by comparing various parameters including, but not limited to, degree of purity, total percentage of impurities, percentage of individual impurities (as determined by HPLC or other suitable quantitative method), appearance, and water content of the sample. An HPLC method can be used to determine any increase in the levels of degradation products relative to the level of INGAP Peptide. INGAP Peptide samples (both solution and lyophilized powder) are stored at various temperatures, in the presence or absence of humidity, and in light or dark vials. Degradation during different storage conditions can lead to an increase in impurities and decrease in INGAP Peptide content. It is desirable that the sample preparation is more than 80% pure, preferably more than 90% pure, more preferably more than 95%, and most preferably more than 97% pure.\nPurity of the INGAP Peptide is maintained under these conditions and degradation products are lower than the acceptable levels."}, "[7]": {"tested_on": "ARIP cells, a rat pancreatic duct cell line", "test": "ARIP cell BrdU proliferation bioassay", "type": "cell-based", "settings": "FIG. 1", "description": "To confirm that the synthetic molecule is bioactive, a bioassay may be used to confirm the activity. ARIP cells, a rat pancreatic duct cell line, obtained from ATCC (Manassas, Va.) are used in the assay. Cells are plated into a 96-well culture plate at 10,000 cells/well, and cultured for 24 hours in Dulbecco's […] Essential Medium (DMEM) containing 10% fetal bovine serum. After 24 hours, the medium is replaced with DMEM without serum. […] After 21 hours, the medium is supplemented with bromodeoxyuridine (BrdU) labeling solution from a BrdU cell proliferation ELISA kit (Roche Molecular Biochemicals) and cultured for a further 3 hours. At 24 hours the cells are dried at 60° C. for 60 minutes, fixed and denatured. They are exposed to BrdU antibody for 90 minutes and developed for 15 minutes, all according to kit instructions. BrdU labeling is quantitated on a Wallac Victor 1420 Multilabel Counter. Results are compared against a standard curve of cells grown on the same culture plate, seeded at densities from 100 to 20,000 cells per well."}, "[8]": {"tested_on": "beagle dogs", "test": "34-day dog repeat-dose toxicology study", "type": "in vivo", "description": "FIG. 8. Effects of daily injection of INGAP Peptide to dogs for 34 days on the area of cells in the pancreas that becomes positive for insulin by immunohistochemical staining. Data are mean ±SEM. The percentage of cross-sectional area stained for insulin was determined with an Olympus microscope (150×) and image analysis software (Image Pro Plus Version 4.0, Media Cybernetics).\nA repeat-dose toxicology study was conducted in beagle dogs for 34 days with daily IM injection of INGAP Peptide at 0, 0.5, 1.5, and 10 mg/kg/day. Pancreatic tissue was obtained for quantitation of β-cell mass by immunohistochemistry from animals sacrificed on Day 34, at termination of treatment, and from recovery animals sacrificed 25 days after termination of treatment. Pancreatic β-cell mass was increased following INGAP Peptide administration (see FIG. 8)."}},
  "note": "Where a SMILES comes first, the peptide text is derived from it.",
  "data": [
    {"molecule": "CC[C@H](C)[C@H](N)C(=O)NCC(=O)N[C@@H](CC(C)C)C(=O)N[C@@H](Cc1c[nH]cn1)C(=O)N[C@@H](CC(=O)O)C(=O)N1CCC[C@H]1C(=O)N[C@@H](CO)C(=O)N[C@@H](Cc1c[nH]cn1)C(=O)NCC(=O)N[C@H](C(=O)N[C@@H](CC(C)C)C(=O)N1CCC[C@H]1C(=O)N[C@@H](CC(N)=O)C(=O)NCC(=O)N[C@@H](CO)C(=O)O)[C@@H](C)O", "note": "[INGAP Peptide, NH2-Ile-Gly-Leu-His-Asp-Pro-Ser-His-Gly-Thr-Leu-Pro-Asn-Gly-Ser-COOH] (H-IGLHDPSHGTLPNGS-OH)", "values": [
      {"measurement": "NOAEL", "setting": "[1]", "result": "> 100", "unit": "mg/kg"},
      {"measurement": "insulin-positive tissue area", "setting": "[2]; 31 days, FIG. 7", "result": "increase in insulin-positive tissue area"},
      {"measurement": "number of small islets", "setting": "[2]; duct-associated and amongst acinar tissue", "result": "increase in the number of small islets"},
      {"measurement": "extramedullary hematopoiesis in the spleen", "setting": "[2]; mouse, in vivo", "result": "seen in one male animal at the high dose"},
      {"measurement": "injection site irritation", "setting": "[2]; mouse, in vivo", "result": "observed in males and females with increased frequency at the highest dose"},
      {"measurement": "microscopic pancreas findings", "setting": "[2]; mouse, in vivo", "result": "No microscopic evidence of inflammatory cell infiltration, edema, necrosis or atrophy"},
      {"measurement": "sugar tolerance", "setting": "[3]; intramuscular injection", "result": "improved sugar tolerance"},
      {"measurement": "C-peptide level in response to Boost®", "setting": "[3]", "result": "an increase in C-peptide level in response to Boost®"},
      {"measurement": "fasting C-peptide level", "setting": "[3]", "result": "an increase in fasting C-peptide level"},
      {"measurement": "fasting glucose level", "setting": "[3]", "result": "a reduction in fasting glucose level"},
      {"measurement": "insulin dose required", "setting": "[3]", "result": "a reduction in insulin does required"},
      {"measurement": "blood glucose concentrations", "setting": "[4]; 250 µg twice daily for 39 days, all four treated animals, FIG. 3", "result": "restored to normal"},
      {"measurement": "transdifferentiation of ductal cells (PDX-1 expression)", "setting": "[4]; FIG. 5", "result": "induced transdifferentiation of ductal cells"},
      {"measurement": "histopathologic evaluation of islets", "setting": "[4]; FIGS. 4 and 6", "result": "both the presence of normal-appearing islets and areas of new islet formation"},
      {"measurement": "hypoglycemia", "setting": "[4]; any of the treated animals", "result": "not observed"},
      {"measurement": "durability of the effect after dosing stopped", "setting": "[4]; dosing stopped after 39 days, study terminated at 48 days", "result": 48, "unit": "days"},
      {"measurement": "islet inflammation", "setting": "[4]; versus saline-treated STZ-diabetic animals, FIG. 6", "result": "markedly reduced"},
      {"measurement": "number of islets compared with placebo-treated animals", "setting": "[5]; FIG. 2", "result": "significant increase"},
      {"measurement": "increase in islet number", "setting": "[5]; after 10 consecutive days", "result": 30, "unit": "%"},
      {"measurement": "number of islets in the tissues", "setting": "[5]; by 30 days", "result": "doubling"},
      {"measurement": "degradation on further storage", "setting": "[6]; lyophilized powder, storage up to six-months", "result": "does not cause any noticeable degradation"},
      {"measurement": "stability of lyophilized powder", "setting": "[6]; various storage conditions", "result": "stable under various storage conditions"},
      {"measurement": "increase in cell count compared with controls", "setting": "[7]; 0.1 µg/ml INGAP Peptide, 24 h, BrdU ELISA", "result": "~1.6", "unit": "fold"},
      {"measurement": "cell number, dose dependence", "setting": "[7]", "result": "dose dependant increase in cell number"},
      {"measurement": "pancreatic tissue section review", "setting": "[8]; 34-day daily IM dosing", "result": "no changes such as edema, inflammatory cell infiltration, necrosis or atrophy"},
      {"measurement": "pancreatic β-cell mass", "setting": "[8]; daily IM 0.5, 1.5, 10 mg/kg/day for 34 days, immunohistochemistry, FIG. 8", "result": "increased"}
    ]}
  ]
}
